BigSolDB 2.1

## NC(=O)c1ccccc1O
In acetone, 253.15 K
  solubility (mole fraction): 0.0592
In acetone, 258.15 K
  solubility (mole fraction): 0.0639
In acetone, 263.15 K
  solubility (mole fraction): 0.0703
In acetone, 268.15 K
  solubility (mole fraction): 0.077
In acetone, 273.15 K
  solubility (mole fraction): 0.0839
In acetone, 278.15 K
  solubility (mole fraction): 0.0911
In acetone, 283.15 K
  solubility (mole fraction): 0.0986
In acetonitrile, 243.15 K
  solubility (mole fraction): 0.005
In acetonitrile, 248.15 K
  solubility (mole fraction): 0.006
In acetonitrile, 253.15 K
  solubility (mole fraction): 0.0071
In acetonitrile, 258.15 K
  solubility (mole fraction): 0.0087
In acetonitrile, 263.15 K
  solubility (mole fraction): 0.0108
In acetonitrile, 268.15 K
  solubility (mole fraction): 0.012
In acetonitrile, 273.15 K
  solubility (mole fraction): 0.0143
In acetonitrile, 278.15 K
  solubility (mole fraction): 0.017
In acetonitrile, 283.15 K
  solubility (mole fraction): 0.0199
In ethyl acetate, 253.15 K
  solubility (mole fraction): 0.0305
In ethyl acetate, 258.15 K
  solubility (mole fraction): 0.0335
In ethyl acetate, 263.15 K
  solubility (mole fraction): 0.0374
In ethyl acetate, 268.15 K
  solubility (mole fraction): 0.0406
In ethyl acetate, 273.15 K
  solubility (mole fraction): 0.0446
In ethyl acetate, 278.15 K
  solubility (mole fraction): 0.0497
In ethyl acetate, 283.15 K
  solubility (mole fraction): 0.0547
In methanol, 253.15 K
  solubility (mole fraction): 0.012
In methanol, 258.15 K
  solubility (mole fraction): 0.0136
In methanol, 263.15 K
  solubility (mole fraction): 0.0157
In methanol, 268.15 K
  solubility (mole fraction): 0.0181
In methanol, 273.15 K
  solubility (mole fraction): 0.0204
In methanol, 278.15 K
  solubility (mole fraction): 0.0233
In methanol, 283.15 K
  solubility (mole fraction): 0.0266

## O=C(O)c1ccccc1O
In acetone, 253.15 K
  solubility (mole fraction): 0.0913
In acetone, 258.15 K
  solubility (mole fraction): 0.0978
In acetone, 263.15 K
  solubility (mole fraction): 0.108
In acetone, 268.15 K
  solubility (mole fraction): 0.114
In acetone, 273.15 K
  solubility (mole fraction): 0.122
In acetone, 278.15 K
  solubility (mole fraction): 0.138
In acetone, 283.15 K
  solubility (mole fraction): 0.143
In acetonitrile, 243.15 K
  solubility (mole fraction): 0.0052
In acetonitrile, 248.15 K
  solubility (mole fraction): 0.0061
In acetonitrile, 253.15 K
  solubility (mole fraction): 0.0071
In acetonitrile, 258.15 K
  solubility (mole fraction): 0.0084
In acetonitrile, 263.15 K
  solubility (mole fraction): 0.01
In acetonitrile, 268.15 K
  solubility (mole fraction): 0.012
In acetonitrile, 273.15 K
  solubility (mole fraction): 0.0141
In acetonitrile, 278.15 K
  solubility (mole fraction): 0.0159
In acetonitrile, 283.15 K
  solubility (mole fraction): 0.0185
In ethyl acetate, 253.15 K
  solubility (mole fraction): 0.0554
In ethyl acetate, 258.15 K
  solubility (mole fraction): 0.0651
In ethyl acetate, 263.15 K
  solubility (mole fraction): 0.075
In ethyl acetate, 268.15 K
  solubility (mole fraction): 0.086
In ethyl acetate, 273.15 K
  solubility (mole fraction): 0.09
In ethyl acetate, 278.15 K
  solubility (mole fraction): 0.099
In ethyl acetate, 283.15 K
  solubility (mole fraction): 0.107
In methanol, 253.15 K
  solubility (mole fraction): 0.0605
In methanol, 258.15 K
  solubility (mole fraction): 0.065
In methanol, 263.15 K
  solubility (mole fraction): 0.0699
In methanol, 268.15 K
  solubility (mole fraction): 0.075
In methanol, 273.15 K
  solubility (mole fraction): 0.083
In methanol, 278.15 K
  solubility (mole fraction): 0.09
In methanol, 283.15 K
  solubility (mole fraction): 0.1
